The source of these data is patent publication US20040214851A1, “Compositions and methods for induction of opioid receptors” (3M Innovative Properties Company, priority 2003, published 2004).

Each structure is given as a SMILES string. Where two headings read alike, the source gives them in different places.

The test system of experiment [1] is Opioid Growth Factor Receptor (OGFr). The experiment in a line: Induction of OGFr mRNA in human PBMCs (GeneChip microarray). The experiment is classed as cell-based. The protocol: (§1) Opioid receptor inducing compounds (ORICs) were dissolved in dimethyl sulfoxide (DMSO, Sigma Chemical Company) at 5 mM concentration. PBMCs were incubated for one hour in X-VIVO 20 medium (Cambrex Bio Science, Walkersville, Md.) at 37° C. in a 5% CO2 incubator prior to incubation with ORIC prepared in DMSO or with DMSO alone (as a control). The amount of DMSO was kept below 0.1% of the total incubation volume.
(§2) PBMCs were incubated for 15, 30, 60, 120 minutes with ORIC 1. […] DMSO-treated control samples were incubated for 1 hour, 2 hours, 5 hours, 9 hours, and 16 hours.
(§3) At the end of the specified incubation time, cells were lysed and total RNA extracted using the Qiagen RNeasy MidiKit (Qiagen, Inc., Valencia, Calif.). RNA was quantified using absorbance at 260. Quality of RNA was determined from the ratio of absorbance measured at OD260 and OD280 and from the ratio of 18S and 28S bands in RNA 6000 Nano Chip gels run on the Agilent 2100 Bioanalyzer (Agilent Technologies, Inc., Palo Alto, Calif.).
RNA was reverse transcribed to cDNA using a Superscript cDNA synthesis kit (Invitrogen Corporation, Carlsbad, Calif.) using an HPLC-purified T7-(dT)24 primer (Genset SA, Paris, France). Labeled cRNA was prepared from double-stranded cDNA by in vitro transcription using an Enzo BioArray High Yield RNA Transcript Labeling Kit in the presence of biotin-11-CTP and biotin-16-UTP (Enzo Diagnostics, Inc., Farmingdale, N.Y.), and purified using an RNeasy MiniKit (Qiagen, Inc.). 10 or 15 μg of biotinylated cRNA were fragmented and hybridized to HG-U95A or U133A GeneChip® arrays (Affymetrix, Santa Clara, Calif.) containing probe sets representing 12,000 genes (HG-U95A) or 22,000 genes (U133A). Chips were hybridized, washed, and stained according to the Affymetrix protocols.
Images were scanned using the Agilent Gene Array Scanner (Agilent Technologies, Inc., Palo Alto, Calif.), and processed using Affymetrix Microarray Suite (MS 4.0 or MS 5.0) software. The total fluorescence intensity of each image was scaled to 500 to enable comparison of different images. The image at each time point was analyzed relative to the appropriate control in order to calculate changes in expression for each gene. Changes in gene expression were deemed significant if the p value for detection and change in expression were <0.05.

Experiment [2] concerns melanoma cell line B16-F10. Nature of the experiment: B16-F10 melanoma lung tumor model in C57/BL6 mice. The experiment is classed as in vivo. Conditions: B16-F10 i.v. As for the experimental part:
C57/BL6 mice are injected on Day 0 intravenously with melanoma cell line B16-F10 (5×10^5). On day 5 and lasting through day 19, mice are injected intraperitoneally every other day with either (a) PBS (control), (b) 10 mg/kg of ORIC2, (c) 10 mg/kg [Met^5]-enkephalin, or (d) both.
On Day 20, half the mice are sacrificed and the lungs are removed and weighed. Percent inhibition of lung tumor growth is determined according to the formula:
Placebo weight−Treatment weight×100 Placebo weight

Another experiment deals with μ-opioid receptor. Nature of the experiment: Induction of μ-opioid receptor mRNA in human PBMCs (GeneChip microarray). The format is cell-based. The protocol: as §1, §2, §3
RNA was reverse transcribed to cDNA using a Superscript cDNA synthesis kit (Invitrogen Corporation, Carlsbad, Calif.) using an HPLC-purified T7-(dT)24 primer (Genset SA, Paris, France). Labeled cRNA was prepared from double-stranded cDNA by in vitro transcription using an Enzo BioArray High Yield RNA Transcript Labeling Kit in the presence of biotin-11-CTP and biotin-16-UTP (Enzo Diagnostics, Inc., Farmingdale, N.Y.), and purified using an RNeasy MiniKit (Qiagen, Inc.). […]
Images were scanned using the Agilent Gene Array Scanner (Agilent Technologies, Inc., Palo Alto, Calif.), and processed using Affymetrix Microarray Suite (MS 4.0 or MS 5.0) software. The total fluorescence intensity of each image was scaled to 500 to enable comparison of different images. The image at each time point was analyzed relative to the appropriate control in order to calculate changes in expression for each gene. […]

The test system of another experiment is lung cancer. The experiment in a line: Human subjects with lung cancer, tumor size by CT scan and survival. The experiment is classed as in vivo. As for the experimental part: Human subjects with lung cancer are injected intravenously with a placebo (control), ORIC5 (10 mg/kg), or both ORIC5 (10 mg/kg) and OGF (1 mg/kg) three times a week for eight weeks. Tumor size is measured by CT scan.

Where [3] appears, read: human PBMCs, 1 μM ORIC 2, 5 μM ORIC 3, 0.1 μM ORIC 4, FIG. 3.
Where [4] appears, read: human PBMCs, 5 μM ORIC 1 (FIG. 1), 1 μM ORIC 2, 5 μM ORIC 3, 0.1 μM ORIC 4, (FIG. 2).

Turning to `CC(C)Cn1cnc2c(N)nc3ccccc3c21` [ORIC1, 1-(2-methylpropyl)-1H-imidazo[4,5-c]quinolin-4-amine], in experiment [1], the “induction of OGFr (mRNA)” value is recorded as “induction”.
As to `CCOCc1nc2c(N)nc3c(c2n1CC(C)(C)O)CCCC3` [ORIC2, 4-amino-2-(ethoxymethyl)-α,α-dimethyl-6,7,8,9-tetrahydro-1H-imidazo[4,5-c]quinoline-1-ethanol], the “inhibition of tumor growth in the lung” value in experiment [2] (10 mg/kg i.p. every other day, day 5 to 19, lungs weighed Day 20, vs placebo) is recorded as “increased inhibition of tumor growth in the lung”. Moreover, in experiment [2] (monitored through Day 75, vs placebo), the survival result is recorded as “enhanced survival”. Further, the “induction of the μ-opioid receptor (mRNA)” value in the experiment with μ-opioid receptor (setting [3]) is reported as “induction”. The “induction of OGFr (mRNA)” value in experiment [1] (setting [4]) was “induction”.
Regarding `CCCCc1nc2c(N)nc3ccccc3c2n1CCCCNS(C)(=O)=O` [ORIC4, N-[4-(4-amino-2-butyl-1H-imidazo[4,5-c]quinolin-1-yl)butyl]methanesulfonamide], the “induction of the μ-opioid receptor (mRNA)” value in the experiment on μ-opioid receptor (setting [3]) is “induction”. Besides, the “induction of OGFr (mRNA)” value in experiment [1] (setting [4]) is given as “induction”.
With `Cc1nc2c(N)nc3c(c2n1CCCCNC(=O)N1CCOCC1)CCCC3` [ORIC5, N-[4-(4-amino-2-methyl-6,7,8,9,-tetrahydro-1H-imidazo[4,5-c]quinolin-1-yl)butyl]morpholine-4-carboxamide], the “induction of the μ-opioid receptor (mRNA)” value in the experiment on μ-opioid receptor was “induction”. The “induction of OGFr (mRNA)” value in experiment [1] is reported as “induction”. For the same molecule, the “tumor size by CT scan” value in the experiment with lung cancer (i.v. three times a week for eight weeks, at eight weeks vs prior to treatment) is given as “measurably smaller”. In addition, in the experiment with lung cancer (vs control group), the five-year survival rate entry is given as “greater”.
